This passage reports IC50, Activity and inhibition results from ChEMBL document CHEMBL5523759, “Discovery of Novel HDAC3 Inhibitors with PD-L1 Downregulating/Degrading and Antitumor Immune Effects” (J Med Chem, 2024).

Calls of active or inactive are those of the source. The calls are words filed in the database; no cut-off is given here. Where only a bound is given, the exact number is not on record here.

The test system of one assay is HepG2. Briefly: Antiproliferative activity against human HepG2 cells assessed as reduction in cell viability measured for 48 hrs by MTT assay. As to conditions: HepG2, 48 h. Format: functional, cell-based. A general note: Tetrazolium assays rely on reduction of a dye to a coloured formazan, in cell work by metabolically active cells.
For assay [1], the system named is B16-F10. In words: Antitumor immunity against mouse B16-F10 cells implanted in C57BL/6 mouse model assessed as increase in CD3+ CD4+ T cells at 25 mg/kg, po administered for 9 days (reference value: 1.50%). Format: functional. As to conditions: time 9 day.
Assay [2] concerns the target T1, Histone deacetylase 8 (Mus musculus) (UniProt Q8VH37).
T1 sequence (whole entry): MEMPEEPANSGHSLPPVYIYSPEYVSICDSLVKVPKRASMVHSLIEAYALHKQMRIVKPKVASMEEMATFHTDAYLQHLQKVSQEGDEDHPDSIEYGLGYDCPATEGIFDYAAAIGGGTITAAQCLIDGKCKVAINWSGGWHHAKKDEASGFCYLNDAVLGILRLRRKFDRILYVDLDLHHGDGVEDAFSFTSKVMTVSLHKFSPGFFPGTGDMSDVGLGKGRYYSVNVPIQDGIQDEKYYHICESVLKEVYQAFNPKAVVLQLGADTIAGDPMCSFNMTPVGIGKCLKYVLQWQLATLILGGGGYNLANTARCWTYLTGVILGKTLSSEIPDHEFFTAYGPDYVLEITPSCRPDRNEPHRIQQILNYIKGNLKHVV
In words: Inhibition of HDAC8 in mouse B16-F10 cells assessed as effect on acetylated SMC3 level at 1 to 2 uM measured for 24 hrs by Western blot analysis. The class given is cell-based. The settings on record: dose 1-2 µM. A general note: Immunoblotting shows a protein as a band on a membrane.

Assay [3] concerns the target T2, Protein deacetylase HDAC6 (Mus musculus) (UniProt Q9Z2V5).
T2 sequence (whole entry): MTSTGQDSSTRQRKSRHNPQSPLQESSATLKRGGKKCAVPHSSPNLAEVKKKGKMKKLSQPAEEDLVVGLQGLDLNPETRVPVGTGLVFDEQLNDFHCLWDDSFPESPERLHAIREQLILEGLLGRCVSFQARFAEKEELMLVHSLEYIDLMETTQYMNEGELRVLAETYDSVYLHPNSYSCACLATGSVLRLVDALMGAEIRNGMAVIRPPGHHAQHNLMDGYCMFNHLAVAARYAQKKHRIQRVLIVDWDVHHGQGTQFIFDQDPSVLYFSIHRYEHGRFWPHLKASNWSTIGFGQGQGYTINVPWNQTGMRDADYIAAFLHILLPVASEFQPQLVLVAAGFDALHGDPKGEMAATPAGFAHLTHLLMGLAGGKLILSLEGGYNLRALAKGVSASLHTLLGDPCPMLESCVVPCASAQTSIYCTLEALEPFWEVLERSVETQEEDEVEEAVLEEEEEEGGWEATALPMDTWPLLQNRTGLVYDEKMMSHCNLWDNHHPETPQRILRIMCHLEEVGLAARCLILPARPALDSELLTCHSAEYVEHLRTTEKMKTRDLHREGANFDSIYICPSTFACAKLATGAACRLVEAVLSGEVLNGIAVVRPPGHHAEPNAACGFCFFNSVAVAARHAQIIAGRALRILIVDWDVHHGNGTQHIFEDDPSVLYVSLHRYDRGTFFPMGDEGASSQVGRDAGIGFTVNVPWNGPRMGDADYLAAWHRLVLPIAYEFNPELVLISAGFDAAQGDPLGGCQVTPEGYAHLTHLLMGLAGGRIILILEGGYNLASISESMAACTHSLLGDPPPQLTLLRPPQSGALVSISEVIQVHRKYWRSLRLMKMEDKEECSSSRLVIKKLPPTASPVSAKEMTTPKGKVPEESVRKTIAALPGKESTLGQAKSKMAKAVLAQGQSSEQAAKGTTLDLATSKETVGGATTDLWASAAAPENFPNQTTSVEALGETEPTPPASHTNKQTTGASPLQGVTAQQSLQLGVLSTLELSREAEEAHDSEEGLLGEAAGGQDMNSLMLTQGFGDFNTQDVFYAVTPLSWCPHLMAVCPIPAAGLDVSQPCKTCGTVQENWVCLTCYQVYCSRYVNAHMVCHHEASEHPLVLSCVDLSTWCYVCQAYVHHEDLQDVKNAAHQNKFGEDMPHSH
Briefly: Inhibition of HDAC6 in mouse B16-F10 cells assessed as effect on acetylated alpha-tubulin level at 1 to 2 uM measured for 24 hrs by Western blot analysis. Format: cell-based. The settings on record: dose 1-2 µM.

Assay [4] concerns B16-F10. In words: Induction of apoptosis in mouse B16-F10 cells at 0.5 uM measured for 48 hrs by Annexin-V/FITC staining based flow cytometry analysis relative to control. Format: functional. (In flow cytometry, cells or beads pass a laser one at a time.)
The next assay has as its system MCF7. Briefly: cells. As to conditions: Homo sapiens, MCF7, 48 h.
For another assay, the system named is Daudi. Briefly: Antiproliferative activity against human Daudi cells assessed as reduction in cell viability measured for 48 hrs by MTT assay. Format: functional, cell-based.
The subject of assay [5] is B16-F10. In words: Induction of apoptosis in mouse B16-F10 cells at 4 uM measured for 48 hrs by Annexin-V/FITC staining based flow cytometry analysis relative to control. The class given is functional.
A further assay relates to Jurkat. Briefly: Antiproliferative activity against human Jurkat T cells assessed as reduction in cell viability measured for 48 hrs by CCK-8 assay. The class given is functional, cell-based.
Assay [6] in a line: Antiproliferative activity against human MINO cells assessed as reduction in cell viability measured for 48 hrs by MTT assay. Format: functional, cell-based.
The test system of assay [7] is B16-F10. Briefly: Antitumor immunity against mouse B16-F10 cells implanted in C57BL/6 mouse model assessed as increase in CD3+ CD8+ T cells at 25 mg/kg, po administered for 9 days (reference value: 1.01%). Format: functional. As to conditions: time 9 day.
A further assay concerns the target T3, Histone deacetylase 8 (Homo sapiens, UniProt Q9BY41).
T3 sequence (Q9BY41 whole entry): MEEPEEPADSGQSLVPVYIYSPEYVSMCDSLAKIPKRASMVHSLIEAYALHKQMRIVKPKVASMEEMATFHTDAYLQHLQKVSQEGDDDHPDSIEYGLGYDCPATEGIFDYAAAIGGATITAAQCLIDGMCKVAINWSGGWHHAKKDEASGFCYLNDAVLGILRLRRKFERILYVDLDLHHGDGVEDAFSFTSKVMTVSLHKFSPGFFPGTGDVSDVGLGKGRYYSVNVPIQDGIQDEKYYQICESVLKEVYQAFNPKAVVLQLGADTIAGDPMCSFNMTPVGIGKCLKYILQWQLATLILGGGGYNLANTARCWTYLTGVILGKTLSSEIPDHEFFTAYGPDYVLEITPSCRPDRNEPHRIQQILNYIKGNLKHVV
In words: Inhibition of human recombinant HDAC8 using Ac-Leu-Gly-Lys (Tfa)-AMC as substrate preincubated with compound for 10 mins followed by substrate addition and measured after 45 mins by TECAN microtiter plate reader analysis.

The subject of assay [8] is B16-F10. Briefly: Induction of cell cycle arrest in mouse B16-F10 cells assessed as accumulation of cells at G2/M phase measured for 48 hrs by flow cytometry analysis. The class given is functional, cell-based. The settings on record: dose 0.5-4 µM.
Assay [9] has as its system B16-F10. Briefly: Induction of apoptosis in mouse B16-F10 cells at 2 uM measured for 48 hrs by Annexin-V/FITC staining based flow cytometry analysis relative to control. The class given is functional.
For the next assay, the target named is Histone deacetylase 1 (Homo sapiens, UniProt Q13547). Briefly: Inhibition of human recombinant HDAC1 using Ac-Leu-Gly-Lys (Ac)-AMC as substrate preincubated with compound for 10 mins followed by substrate addition and measured after 45 mins by TECAN microtiter plate reader analysis.
Chain of Histone deacetylase 1 (Q13547 whole entry): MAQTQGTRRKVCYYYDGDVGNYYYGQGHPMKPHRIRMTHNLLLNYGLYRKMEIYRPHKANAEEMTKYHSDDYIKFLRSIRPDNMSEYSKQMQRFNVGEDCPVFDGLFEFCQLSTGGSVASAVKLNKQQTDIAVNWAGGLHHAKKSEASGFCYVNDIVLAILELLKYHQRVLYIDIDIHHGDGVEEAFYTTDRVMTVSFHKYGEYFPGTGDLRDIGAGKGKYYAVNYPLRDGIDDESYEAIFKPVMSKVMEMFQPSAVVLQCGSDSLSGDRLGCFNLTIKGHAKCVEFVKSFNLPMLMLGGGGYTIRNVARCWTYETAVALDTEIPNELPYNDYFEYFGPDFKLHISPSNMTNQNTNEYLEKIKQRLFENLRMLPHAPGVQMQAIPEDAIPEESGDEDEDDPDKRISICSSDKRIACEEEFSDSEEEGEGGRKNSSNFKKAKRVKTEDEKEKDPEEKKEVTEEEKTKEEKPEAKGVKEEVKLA

Description for MCF7: Antiproliferative activity against human MCF7 cells assessed as reduction in cell viability measured for 48 hrs by MTT assay

With `CCCNNC(=O)c1ccc(CNC(=O)c2ncc(CNc3ccccc3)s2)cc1`, the IC50 – broadly, the concentration that gives 50% inhibition – in the assay with HepG2 is 0.24 µM; with MCF7 it was 2.94 µM; with Jurkat, 0.09 µM; in [6], 0.03 µM; on Histone deacetylase 8, more than 10 µM; on Histone deacetylase 1, 0.73 µM. The Activity in the assay on B16-F10 [1] was 4.16%; in the assay with B16-F10 [4] it was 21.23%; with B16-F10 [5] it was 61.25%; with B16-F10 [7], 3.7%; in the assay with B16-F10 [8] it was “Dose-Dependent Effect”; in the assay with B16-F10 [9], 61.84%. Besides, the inhibition result in assay [2] and in assay [3] was “inactive” throughout. Besides, the outcome in the assay on Daudi was Active.

For `Nc1ccccc1NC(=O)c1ccc(-c2ncc(CNc3ccccc3)s2)cc1`, the IC50 with HepG2 was 0.96 µM; in the assay with MCF7, 3.34 µM; in the assay with Jurkat it was 0.14 µM; in assay [6], 0.052 µM; at Histone deacetylase 8, more than 10 µM; at Histone deacetylase 1, 0.51 µM. The inhibition entry in assay [2] and in [3] was “inactive” in each case. Further, the Activity was 11% in the assay with B16-F10 [4], 20.96% in the assay on B16-F10 [5], “Dose-Dependent Effect” in the assay on B16-F10 [8] and 18.77% in the assay with B16-F10 [9]. The result in the assay with Daudi was Active.
